Test results as given in US20200054651A1, “COMPOSITIONS AND METHODS FOR MODULATING PPP2R1A” (The Regents of the University of California, priority 2017, published 2020).

How the values were obtained:
[1] = tested on: phosphorylated AKT (p-AKT); assay: Western blot of phosphorylated AKT in 231MFP cells; type: cell-based
Method: Antibodies to vinculin, phospho-Akt (Ser473), and Akt were obtained from a commercial source and proteomes were blotted per recommended manufacturer's' procedure. Cells were lysed in lysis buffer (containing the following: 20 mM Tris pH 7.5, 150 mM NaCl, 1 mM EDTA, 1 mM EGTA, 1% Triton X-100, 2.5 mM pyrophosphate, 50 mM NaF, 5 mM (3-glycero-phosphate, 1 mM Na3VO4, 50 nM calyculin A, and protease inhibitors). Lysate was incubated on a rotator at 4° C. for 30 min, and insoluble material was removed via centrifugation at a max speed for 10 minutes. Proteins were resolved by SDS/PAGE and transferred to nitrocellulose membranes using the iBlot system. Blots were blocked with 5% nonfat milk in Tris-buffered saline containing Tween 20 (TBST) solution for 1 hour at room temperature, washed in TBST, and probed with primary antibody diluted in a manufacturer recommended diluent overnight at 4° C. Following washes with TBST, the blots were incubated in the dark with secondary antibodies purchased from Rockland and used at 1:10 000 dilution in 5% nonfat milk in TBST at room temperature. Blots were visualized using an Odyssey Li-Cor scanner after additional washes.

[2] = tested on: 231MFP breast cancer cells; assay: 231MFP cell proliferation (Hoechst staining); type: cell-based; details: 48 h; for cell proliferation: 231MFP
[3] = molecular target: T1, pure human PPP2R1A protein (Homo sapiens, UniProt P30153); assay: Gel-based ABPP, competition against IAyne labeling; type: binding; details: for competition against IAyne labeling of pure human PPP2R1A: 30 min pre-incubation; for IC50: 30 min at 37° C. pre-treatment, IAyne labeling
T1 construct: purchased Origene
Method: Gel-based ABPP methods were performed using the methods described in “Chem Biol 22(10), 1394-1405 (2015)” by Medina-Cleghorn D., et al. Recombinant pure human proteins were purchased from Origene. Pure proteins were pre-treated with DMSO, Withaferin A, or acrylamide or chloroacetamide compounds (e.g., DKM 2-90 or JNS 1-40) for 30 minutes at 37° C. in an incubation volume of PBS (50 μL), and were subsequently treated with IAyne (10 μM final concentration) for 30 minutes at room temperature. CuAAC was performed to append rhodamine-azide onto IAyne probe-labeled proteins. The samples were separated by SDS/PAGE and scanned using a ChemiDoc MP. Inhibition of target labeling was assessed by densitometry using ImageStudio Light software.

C377 of PPP2R1A = molecular target: T2, C377 of PPP2R1A (Homo sapiens, UniProt P30153); assay: Competitive isoTOP-ABPP in 231MFP proteomes in vitro; type: binding
T2 construct: pre-incubating withaferin A (10 μM) for 30 min in 231MFP breast cancer cell proteomes; endogenous in cells; host or cells: 231MFP breast cancer cells (MDA-MB-231 derived)
Method: IsoTOP-ABPP studies were performed using the methods described in “Nature 534(7608), 570-574 (2016)” by Backus K. M., et al. and “Nature 468(7325), 790-795 (2010)” by Weerapana E., et al. Proteome samples diluted in PBS were treated with Withaferin A or vehicle for 30 minutes at 37° C. Then, IAyne (iodoacetamide-alkyne) labeling was performed for 1 hour at room temperature. CuAAC was used by sequential addition of tris(2-carboxyethyl)phosphine (1 mM), tris[(1-benzyl-1H-1,2,3-triazol-4-yl)methyl]amine (34 μM), copper (II) sulfate (1 mM), and biotin-linker-azide where the linker was functionalized with a TEV protease recognition sequence along with an isotopically light or heavy valine for treatment of control or treated proteome, respectively. After click reactions, proteomes were precipitated by centrifugation at 6500×g, washed in ice-cold methanol, combined in a 1:1 control/treated ratio, washed again, then denatured and re-solubilized by heating in 1.2% SDS/PBS to 80° C. for 5 minutes. Insoluble components were precipitated by centrifugation at 6500×g and soluble proteome was diluted in 0.2% SDS/PBS (5 ml). Labeled proteins were bound to avidin-agarose beads (170 μl re-suspended beads/sample) while rotating overnight at 4° C. Bead-linked proteins were enriched by washing three times each in PBS and water, then re-suspended in urea/PBS (6 M), reduced in TCEP (1 mM), alkylated with iodoacetamide (18 mM), then washed and re-suspended in urea/PBS (2 M), and finally trypsinized overnight with 0.5 μg/μl sequencing grade trypsin. Tryptic peptides were eluted off. Beads were washed in PBS (3 times) and water (3 times), washed in TEV buffer solution (water, TEV buffer, 100 μM dithiothreitol), and re-suspended in buffer with Ac-TEV protease and then incubated overnight. Peptides were diluted in water, acidified with formic acid (1.2 M), and prepared for analysis.
Peptides from all proteomic experiments were pressure-loaded onto an Agilent 600 series RP-HPLC system equipped with a capillary tubing (250 mm) packed with Aqua C18 reverse-phase resin (4 cm). The system was previously equilibrated with a gradient (0% B to 100% B over 10 minutes, 100% B for 5 minutes, then 0% B for 5 minutes; buffer A: 95:5 water:acetonitrile, 0.1% formic acid; buffer B: 80:20 acetonitrile:water, 0.1% formic acid). The samples were then attached using a MicroTee PEEK 360 μm fitting to a laser pulled column (13 cm) packed with Aqua C18 reverse-phase resin (10 cm) and strong-cation exchange resin (3 cm) for isoTOP-ABPP studies. Samples were analyzed using an Q Exactive Plus mass spectrometer using a 5-step Multidimensional Protein Identification Technology (MudPIT) program. […]

T1 sequence (P30153 whole entry): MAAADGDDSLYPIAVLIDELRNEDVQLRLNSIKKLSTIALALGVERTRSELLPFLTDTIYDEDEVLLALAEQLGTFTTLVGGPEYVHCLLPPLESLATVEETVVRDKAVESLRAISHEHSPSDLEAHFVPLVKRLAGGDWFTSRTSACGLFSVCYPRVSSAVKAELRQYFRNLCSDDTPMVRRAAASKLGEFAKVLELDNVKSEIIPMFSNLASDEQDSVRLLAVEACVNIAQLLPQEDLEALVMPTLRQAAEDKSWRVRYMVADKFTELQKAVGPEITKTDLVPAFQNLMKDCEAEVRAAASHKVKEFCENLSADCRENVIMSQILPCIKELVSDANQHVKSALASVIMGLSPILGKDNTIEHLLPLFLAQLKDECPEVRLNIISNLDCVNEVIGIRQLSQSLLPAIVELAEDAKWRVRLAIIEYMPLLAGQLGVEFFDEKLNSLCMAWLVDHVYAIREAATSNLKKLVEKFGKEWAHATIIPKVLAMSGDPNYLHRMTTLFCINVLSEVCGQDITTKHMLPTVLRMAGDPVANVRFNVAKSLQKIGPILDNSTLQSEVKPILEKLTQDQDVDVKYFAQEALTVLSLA
T2 sequence (P30153 whole entry): as above

| Compound | phosphorylated AKT levels ([1]; 10 μM, 4 h) | phosphorylated AKT levels with cantharidin co-treatment ([1]; 10 μM, 4 h, co-treatment with cantharidin (10 μM, 4 h)) | cell proliferation ([2]; 10 μM) | EC50 ([2]; serum-containing media, Hoechst staining, read-out: 50% effective concentration (EC50), impairment of 231MFP cell proliferation) [µM] | competition against IAyne labeling of pure human PPP2R1A ([3]; gel-based ABPP) | isotopically light to heavy ratio, C377 of PPP2R1A (C377 of PPP2R1A; 10 μM, 30 min pre-incubation, IAyne 100 μM) | phosphorylated AKT levels ([1]; 100 μM, 5 h) | cell proliferation ([2]; 100 μM) | IC50 [3] [µM] | isotopically light to heavy ratio, C377 of PPP2R1A (C377 of PPP2R1A; 100 μM, 30 min pre-treatment) | improved potency towards PPP2R1A compared to DKM 2-90 ([3]; gel-based ABPP) [fold] |
| --- | --- | --- | --- | --- | --- | --- | --- | --- | --- | --- | --- |
| CC1=C(CO)C(=O)O[C@@H]([C@@H](C)[C@H]2CC[C@H]3[C@@H]4C[C@H]5O[C@]56[C@@H](O)C=CC(=O)[C@]6(C)[C@H]4CC[C@]23C)C1 [withaferin A, reference compound] | reduced phosphorylated AKT levels | rescued | impairs | 7.5 | full competition | > 5 |  |  |  |  |  |
| O=C(CCl)Nc1ccc2c(c1)OCCO2 [DKM 2-90, 2-Chloro-N-(2,3-dihydrobenzo[β][1,4]dioxin-6-yl)acetamide] |  |  |  |  | confirming the competition |  | inhibit AKT signaling | lead compounds | 10 | quite selectively targeted C377 of PPP2R1A |  |
| O=C(CCl)N(Cc1ccccc1)c1ccc2c(c1)OCCO2 [JNS 1-40, N-benzyl-2-chloro-N-(2,3-dihydrobenzo[b][1,4]dioxin-6-yl)acetamide] |  |  |  |  |  |  | significantly reduced phosphorylated AKT levels | impaired | 0.63 | > 5 | 16 |
